Some test systems named below: 786-0 renal; SK-MEL-5 melanoma; NCI-H23 lung; TK-10 renal; RPMI-8226 leukemia; MCF7 breast; NCI-H522 lung; BT-549 breast; A498 renal; T-47D breast.
Assay in all cases: inhibition of tumour cell growth, NCI panel, 48 h

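How tested: cells in 96-well plates exposed to compound for 48 hours at five concentrations. GI50 marks 50% less growth. TGI: total growth inhibition.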

Consider `COC(=O)[C@@H](C)C[C@H](Cc1ccccc1)NC(=O)c1cccc([C@@H](C[C@H](C(C)C)N(C)C(=O)[C@@H](NC(=O)[C@H]2CCCCN2C)C(C)C)OC(C)=O)n1`, for which the GI50 in the assay with 786-0 renal was 0.00583 µM; in the assay with SK-MEL-5 melanoma, less than 0.00167 µM; in the assay on NCI-H23 lung, 0.0034 µM; in the assay on RPMI-8226 leukemia, less than 0.00167 µM; in the assay with MCF7 breast, less than 0.00167 µM; with NCI-H522 lung it was less than 0.00167 µM. For the same compound, the GI50 with BT-549 breast is 0.0025 µM. The TGI in the assay on 786-0 renal was more than 16.7 µM; in the assay with SK-MEL-5 melanoma, 0.0252 µM; in the assay on NCI-H23 lung, more than 16.7 µM; in the assay with TK-10 renal it was more than 16.7 µM; in the assay on RPMI-8226 leukemia it was more than 16.7 µM; in the assay with MCF7 breast it was more than 16.7 µM. In addition, the TGI with NCI-H522 lung was found to be 0.00263 µM; in the assay on BT-549 breast, 0.101 µM.

As to `COCC(O)CN1C(N)=NC(O)C1O` (stereo unspecified), the TGI in the assay with 786-0 renal, in the assay on SK-MEL-5 melanoma, in the assay with NCI-H23 lung, in the assay with TK-10 renal and in the assay with NCI-H522 lung was more than 100 µM throughout.

Regarding `COc1ccc2nccc(C3OC(=O)N4CCC(=O)CC34)c2c1` (stereo unspecified), the TGI in the assay with 786-0 renal, in the assay on SK-MEL-5 melanoma, with A498 renal, in the assay with NCI-H23 lung, in the assay with TK-10 renal and in the assay on RPMI-8226 leukemia was more than 100 µM in each case. This compound also registered a TGI with NCI-H522 lung of 28.7 µM.

Take `CCCCCC1C2C(=O)NC(=O)C1C(=O)NC2=O` (stereo unspecified): the TGI with 786-0 renal, with SK-MEL-5 melanoma, with A498 renal, with NCI-H23 lung, in the assay with TK-10 renal and in the assay on RPMI-8226 leukemia was more than 100 µM throughout. This compound displayed a TGI with NCI-H522 lung of more than 100 µM.

As to `O=[N+]([O-])c1ccc(-c2ccc(C3=Nn4c(nnc4-c4ccc(Cl)cc4)SC3)o2)cc1`, the TGI with 786-0 renal was more than 100 µM; in the assay with SK-MEL-5 melanoma it was more than 100 µM; with A498 renal, more than 100 µM; in the assay with NCI-H23 lung it was more than 85.9 µM; in the assay on TK-10 renal, 53.4 µM; with RPMI-8226 leukemia, more than 100 µM. Further, the TGI in the assay on NCI-H522 lung was more than 100 µM.

For `O=c1c2ccccc2nc(-c2ccccc2Cl)n1NC1OC(CO)C(O)C(O)C1O` (stereo unspecified), the TGI in the assay on 786-0 renal, in the assay on SK-MEL-5 melanoma, with A498 renal, with NCI-H23 lung, in the assay with TK-10 renal and with RPMI-8226 leukemia was more than 100 µM in each case. Besides, the TGI in the assay on NCI-H522 lung was more than 100 µM.

As to `O=C(/C=C\c1ccc(Cl)c(Cl)c1)c1ccccc1`, the GI50 in the assay on 786-0 renal was 8.07 µM; in the assay with SK-MEL-5 melanoma, 16.7 µM; in the assay on A498 renal, 12.4 µM; with RPMI-8226 leukemia it was 2.11 µM; in the assay on MCF7 breast, 1.89 µM; with NCI-H522 lung it was 10.2 µM. Besides, the GI50 in the assay on BT-549 breast is 9.85 µM. Moreover, the TGI stood at 21.6 µM with 786-0 renal; 30.9 µM in the assay with SK-MEL-5 melanoma; 25.2 µM in the assay with A498 renal; 4.86 µM in the assay on RPMI-8226 leukemia; 5.58 µM with MCF7 breast; 22.2 µM with NCI-H522 lung. Further, in the assay with BT-549 breast, the TGI was 22 µM.

For `CC(=O)NC1C(=O)CC(c2ccccc2)N(C)C1c1ccccc1` (stereo unspecified), the TGI in the assay on 786-0 renal, in the assay with SK-MEL-5 melanoma, in the assay with A498 renal, in the assay on NCI-H23 lung, with TK-10 renal and with NCI-H522 lung was more than 100 µM throughout.

Regarding `CCN(CC)CCCC(C)NC(=S)N/N=C(\C)c1ccccn1` (stereo unspecified), the GI50 was 2.83 µM in the assay with 786-0 renal; 1.7 µM with SK-MEL-5 melanoma; 2.57 µM in the assay with A498 renal; 5.22 µM in the assay with NCI-H23 lung; 5.36 µM in the assay on T-47D breast; 21.6 µM in the assay on TK-10 renal. For the same compound, the GI50 is 5.84 µM in the assay with RPMI-8226 leukemia, 2.94 µM with MCF7 breast and 3.17 µM with NCI-H522 lung. The TGI in the assay on 786-0 renal was 12 µM; with SK-MEL-5 melanoma, 4.2 µM; with A498 renal, 97 µM; with NCI-H23 lung it was more than 100 µM; in the assay with T-47D breast it was more than 100 µM; in the assay on TK-10 renal, more than 100 µM. Besides, the TGI was more than 100 µM with RPMI-8226 leukemia, more than 100 µM in the assay with MCF7 breast and 9.41 µM with NCI-H522 lung.

As to `CC/C(=C(\c1ccccc1)c1ccc(OCC[N+](C)(C)C)cc1)c1ccccc1`, the TGI in the assay on 786-0 renal is 27.9 µM; in the assay on SK-MEL-5 melanoma it was 16.4 µM; in the assay with A498 renal, 40.6 µM; in the assay with RPMI-8226 leukemia, 28.8 µM; with NCI-H522 lung, 18.7 µM.

Turning to `N#CC1=C(N)Oc2c(ccc3ccccc23)C1c1ccccc1Cl` (stereo unspecified), the GI50 was 0.754 µM in the assay on 786-0 renal; 0.487 µM in the assay on SK-MEL-5 melanoma; 0.0845 µM with A498 renal; 0.474 µM in the assay with NCI-H23 lung; 4.95 µM in the assay with TK-10 renal; 0.348 µM with RPMI-8226 leukemia. The GI50 with MCF7 breast is 0.383 µM; with NCI-H522 lung, 0.0848 µM; in the assay with BT-549 breast, 1.2 µM. The TGI in the assay with 786-0 renal amounted to 16.4 µM; with SK-MEL-5 melanoma, 4.87 µM; in the assay with A498 renal it was 0.496 µM; in the assay on NCI-H23 lung it was 17.3 µM; in the assay on TK-10 renal, 44.1 µM; in the assay with RPMI-8226 leukemia, 8.86 µM. Moreover, the TGI came out at 15.2 µM in the assay with MCF7 breast, 3.22 µM in the assay on NCI-H522 lung and 7.74 µM in the assay on BT-549 breast.

`Cc1ccc(S(=O)(=O)c2ccccn2)cc1`: the TGI in the assay with 786-0 renal, with SK-MEL-5 melanoma, in the assay with A498 renal, in the assay with NCI-H23 lung, with TK-10 renal and in the assay on RPMI-8226 leukemia was more than 100 µM each time. Also, the TGI in the assay on NCI-H522 lung was more than 100 µM.

For `Cc1nc2c(=O)n(C)c(=O)nc-2n(-c2ccc(Cl)cc2)c1C`, the TGI with 786-0 renal, with SK-MEL-5 melanoma, in the assay with A498 renal, with NCI-H23 lung, in the assay with TK-10 renal and in the assay on NCI-H522 lung was more than 100 µM each time.

As to `S=C(N/N=C/c1ccccc1)NC1CC(c2ccccc2)Oc2ccccc21` (stereo unspecified), the TGI was more than 100 µM with 786-0 renal, 65.8 µM in the assay on SK-MEL-5 melanoma, more than 100 µM in the assay on NCI-H23 lung and more than 100 µM in the assay with NCI-H522 lung.

Values taken from PubChem BioAssay (NCI).
